Test results taken from patent US20260109672A1, “SARS-COV-2 MPRO INHIBITORS AND USES THEREOF” (NXERA PHARMA UK LIMITED, priority 2022, published 2026).

Experiments:
SARS-CoV-2 Mpro [1] = target: T1, SARS-CoV-2 Mpro (Severe acute respiratory syndrome coronavirus 2, UniProt P0DTD1); test: SARS-CoV-2 Mpro enzyme assay (FRET); assay type: biochemical; conditions: 20 nM Mpro, 30 min preincubation at 30° C., mean n=2, read-out: SARS-CoV-2 Mpro enzyme pKi assay pKi (converted)
[2] = tested on: P-glycoprotein (P-gp, MDR1); test: MDCK-MDR1 permeability and P-gp substrate assay; assay type: in vitro ADME, canine; conditions: dog, pH 7.4, MDCK-MDR1, apical to basolateral, without P-gp inhibitor
Procedure: Permeability and drug efflux of certain example compounds was investigated using the following assay.
Test compound was added to either the apical side of a confluent monolayer of MDCK-MDR1 (Madin-Darby canine kidney cells stably transfected to express active P-glycoprotein) and permeability was measured by monitoring the appearance of the test compound on the basolateral side of the monolayer using LC-MS/MS. Experiments were performed in the absence and presence of a P-glycoprotein (P-gp) inhibitor elacridar (2 μM) to determine whether the compound was subject to P-gp mediated efflux.
MDCK-MDR1 cells obtained from the NIH (Rockville, MD, USA) were used between passage numbers 6-30. […]
For assessment of A-B permeability, HBSS was removed from the apical compartment and replaced with test compound dosing solution or test compound plus P-gp inhibitor dosing solutions. […] Test compound permeability was assessed in duplicate. […]
Test and control compounds were quantified by LC-MS/MS cassette analysis using a 7-point calibration with appropriate dilution of the samples. The starting concentration (C0) was determined from the dosing solution and the experimental recovery calculated from C0 and both apical and basolateral compartment concentrations.
The permeability coefficient (Papp) for each compound in the absence and presence of a P-gp inhibitor was calculated from the following equation: […]

[3] = tested on: ten further coronavirus strains; conditions: read-out: Ki values against ten further coronavirus strains; cited from earlier work
live virus = conditions: cited from earlier work
SARS-CoV-2 infection = conditions: approved in selected countries for limited use; Zhou et al.; cited from earlier work
SARS-CoV-2 Mpro [4] = target: T1, SARS-CoV-2 Mpro; test: Modified SARS-CoV-2 Mpro enzyme assay (FRET, kinetic read) for reference examples; assay type: biochemical; conditions: 5 nM Mpro, 20 min preincubation at room temperature, mean n=2, set out in PCT/GB2022/050836, read-out: SARS-CoV-2 Mpro enzyme pKi assay pKi (converted)
[5] = Pedersen et al.; cited from earlier work

Molecule	Ki (SARS-CoV-2 Mpro [1]) [nM]	further results
CC(C)(C)[C@H](NC(=O)C(F)(F)F)C(=O)N1C[C@H]2[C@@H]([C@H]1C(=O)NC(C[C@H]1CCCNC1=O)C(=O)C(=O)NC1CC1)C2(C)C (stereo partly drawn) [Example 6, (1R,2S,5S)-N-[3-(cyclopropylamino)-2,3-dioxo-1-[[(3R)-2-oxo-3-piperidyl]methyl]propyl]-3-[(2S)-3,3-dimethyl-2-[(2,2,2-trifluoroacetyl)amino]butanoyl]-6,6-dimethyl-3-azabicyclo[3.1.0]hexane-2-carboxamide]	10	
CC(C)C(=O)N[C@H](C(=O)N1C[C@H]2[C@@H]([C@H]1C(=O)NC(C[C@@H]1CCNC1=O)C(=O)C(=O)NC1CC1)C2(C)C)C(C)(C)C (some centres unmarked) [Example 5]	15.8	
CNC(=O)C(=O)C(CC1CC1)NC(=O)[C@@H]1[C@@H]2[C@H](CN1C(=O)[C@@H](NC(=O)C(F)(F)F)C(C)(C)C)C2(C)C (stereo partly drawn) [Example 2, (1R,2S,5S)-N-[1-(cyclopropylmethyl)-3-(methylamino)-2,3-dioxo-propyl]-3-[(2S)-3,3-dimethyl-2-[(2,2,2-trifluoroacetyl)amino]butanoyl]-6,6-dimethyl-3-azabicyclo[3.1.0]hexane-2-carboxamide]	20	Papp A→B at 60 min, 1 μM [2]: 2.2 ×10⁻⁶ cm/s
PF-00835231		Ki [3]: 0.03 to 4 nM; Activity in cell-based live virus assays (live virus): ~1 µM
CC(C)(C)[C@H](NC(=O)C(F)(F)F)C(=O)N1C[C@H]2[C@@H]([C@H]1C(=O)NC(CC1CCC1)C(=O)C(N)=O)C2(C)C (stereo partly drawn) [Example 4, (1R,2S,5S)-N-[3-amino-1-(cyclobutylmethyl)-2,3-dioxo-propyl]-3-[(2S)-3,3-dimethyl-2-[(2,2,2-trifluoroacetyl)amino]butanoyl]-6,6-dimethyl-3-azabicyclo[3.1.0]hexane-2-carboxamide]	79.4	
CC(C)(C)[C@H](NC(=O)C(F)(F)F)C(=O)N1C[C@H]2[C@@H]([C@H]1C(=O)NC(C[C@@H]1CCNC1=O)C(=O)C(=O)NC1CC1)C2(C)C (stereo partly drawn) [Example 1, (1R,2S,5S)-N-(4-(cyclopropylamino)-3,4-dioxo-1-((S)-2-oxopyrrolidin-3-yl)butan-2-yl)-3-((S)-3,3-dimethyl-2-(2,2,2-trifluoroacetamido)butanoyl)-6,6-dimethyl-3-azabicyclo[3.1.0]hexane-2-carboxamide]	3.98	Papp A→B at 60 min, 1 μM [2]: 0.9 ×10⁻⁶ cm/s
CC1(C)[C@@H]2[C@@H](C(=O)NC(C[C@@H]3CCNC3=O)C(=O)C(=O)NC3CC3)N(C(=O)/C=C/c3ccc(F)cc3F)C[C@@H]21 (stereo partly drawn) [Example 7, (1R,2S,5S)-N-(4-(cyclopropylamino)-3,4-dioxo-1-((S)-2-oxopyrrolidin-3-yl)butan-2-yl)-3-((E)-3-(2,4-difluorophenyl)acryloyl)-6,6-dimethyl-3-azabicyclo[3.1.0]hexane-2-carboxamide]	63.1	
NC(=O)c1nc(F)c[nH]c1=O [favipiravir]		Effect in treatment of SARS-CoV-2 infection (SARS-CoV-2 infection): modest effects
CC(C)[C@H](NC(=O)C(F)(F)F)C(=O)N1C[C@H]2[C@@H]([C@H]1C(=O)NC(CC1CC1)C(=O)C(N)=O)C2(C)C (stereo partly drawn) [Example 3, (1R,2S,5S)-N-[3-amino-1-(cyclopropylmethyl)-2,3-dioxo-propyl]-6,6-dimethyl-3-[(2S)-3-methyl-2-[(2,2,2-trifluoroacetyl)amino]butanoyl]-3-azabicyclo[3.1.0]hexane-2-carboxamide]	63.1	
CC(C)C(=O)N[C@H](C(=O)N1C[C@H]2[C@@H]([C@H]1C(=O)NC(CC1CC1)C(=O)C(=O)C#N)C2(C)C)C(C)(C)C (some centres unmarked) [Example 27]		Ki (SARS-CoV-2 Mpro [4]): > 5010 nM
CC(C)C[C@H](NC(=O)OCc1ccccc1)C(=O)N[C@@H](C[C@@H]1CCNC1=O)C(O)S(=O)(=O)[O-].[Na+] (some centres unmarked) [GC376]		Side effects in trials performed in cats [5]: side effects
